Assay results reported in patent US8969578B2, “Inhibitors of STAT3” (University of Central Florida Research Foundation, Inc., priority 2008, dated 2015).

Test system: NIH3T3/vSrc cells
Assay: WST-1 cell viability/proliferation assay, NIH3T3/vSrc
Type: cell-based, mouse
Experimental: Initial in vitro whole-cell experiments were conducted against normal mouse NIH-3T3 fibroblasts and v-src-transformed counterparts (NIH-3T3/v-src) that harbor aberrant STAT3. Inhibitor effects upon cell viability, proliferation, and cytotoxicity were assessed through WST-1, a cell proliferation reagent that measures the metabolic activity of viable cells. […] It is assumed that the predominantly hydrophobic nature of these compounds facilitated successful permeation of the cell membrane despite the phosphate.

## CC(C)C[C@H](NC(=O)[C@H](Cc1ccc(OP(=O)(O)O)cc1)NC(=O)c1ccc(C#N)cc1)C(=O)O [ISS610]
  inhibitor concentration required for suppression in whole cells: millimolar concentrations
